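Tested at 5 concentrations; 48 h exposure; 96-well plates; endpoints linearly interpolated, else capped at highest concentration. TGI: total growth inhibition.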
How the values were obtained:
Assay in all cases: inhibition of tumour cell growth, NCI panel, 48 h
[1] = system: 786-0 renal
[2] = system: A549 NSCLC
[3] = system: ACHN renal
[4] = system: BT-549 breast
[5] = system: CAKI-1 renal
[6] = system: CCRF-CEM leukemia
[7] = system: COLO 205 colon
[8] = system: DU-145 prostate
[9] = system: EKVX NSCLC
[10] = system: HCC-2998 colon
[11] = system: HCT-116 colon
[12] = system: HCT-15 colon
[13] = system: HL-60(TB) leukemia
[14] = system: HOP-62 NSCLC
[15] = system: HOP-92 NSCLC
[16] = system: HS 578T breast
[17] = system: HT29 colon
[18] = system: IGROV1 ovarian
[19] = system: K-562 leukemia
[20] = system: KM12 colon
[21] = system: LOX IMVI melanoma
[22] = system: M14 melanoma
[23] = system: MALME-3M melanoma
[24] = system: MCF7 breast
[25] = system: MDA-MB-231 breast
[26] = system: MDA-MB-435
[27] = system: MDA-N
[28] = system: MOLT-4 leukemia
[29] = system: NCI-H226 lung
[30] = system: NCI-H23 lung
[31] = system: NCI-H460 lung
[32] = system: NCI-H522 lung
[33] = system: NCI/ADR-RES ovarian
[34] = system: OVCAR-3 ovarian
[35] = system: OVCAR-4 ovarian
[36] = system: OVCAR-5 ovarian
[37] = system: OVCAR-8 ovarian
[38] = system: PC-3 prostate
[39] = system: RPMI-8226 leukemia
[40] = system: RXF 393 renal
[41] = system: SF-268 CNS
[42] = system: SF-295 CNS
[43] = system: SF-539 CNS
[44] = system: SK-MEL-2 melanoma
[45] = system: SK-MEL-28 melanoma
[46] = system: SK-MEL-5 melanoma
[47] = system: SK-OV-3 ovarian
[48] = system: SN12C renal
[49] = system: SNB-19 CNS
[50] = system: SNB-75 CNS
[51] = system: SW-620 colon
[52] = system: T-47D breast
[53] = system: TK-10 renal
[54] = system: U251 CNS
[55] = system: UACC-257 melanoma
[56] = system: UO-31 renal
[57] = system: A498 renal
[58] = system: SR leukemia
[59] = system: UACC-62 melanoma

Measured: TGI

Nc1ccn(C2CCC(COP(=O)(O)OCC(O)COP(=O)(O)OCC3OC(n4cc(F)c(=O)[nH]c4=O)CC3O)O2)c(=O)n1 (configuration not stated)
4.59 µM: [15]
> 21 µM: [46]
> 100 µM: [1] | [2] | [3] | [4] | [5] | [6] | [7] | [8] | [9] | [10] | [11] | [12] | [13] | [14] | [16] | [17] | [18] | [19] | [20] | [21] | [22] | [23] | [24] | [25] | [26] | [27] | [28] | [29] | [30] | [31] | [32] | [33] | [34] | [35] | [36] | [37] | [38] | [39] | [40] | [41] | [42] | [43] | [44] | [45] | [47] | [48] | [49] | [50] | [51] | [52] | [53] | [54] | [55] | [56]

COc1ccc2[nH]c3c(c2c1)CC(=O)N1CCC[C@H](C1)CC31OCCCO1
> 100 µM: [1] | [57] | [2] | [3] | [4] | [5] | [6] | [7] | [8] | [9] | [10] | [11] | [12] | [14] | [15] | [16] | [17] | [18] | [20] | [22] | [23] | [24] | [25] | [26] | [27] | [29] | [30] | [31] | [33] | [34] | [35] | [36] | [37] | [38] | [39] | [40] | [41] | [42] | [44] | [45] | [46] | [47] | [48] | [49] | [50] | [58] | [51] | [52] | [53] | [54] | [55] | [59] | [56]

COC(=O)C1(Cc2ccccc2)Cc2cc3c(cc2C1O)CCC3 (configuration not stated)
29.3 µM: [46]
32.5 µM: [40]
48.3 µM: [20]
62.9 µM: [52]
41.3 µM: [29]
67.2 µM: [53]
60.6 µM: [10]
32.2 µM: [26]
33.3 µM: [48]
36.7 µM: [43]
36 µM: [47]
41.7 µM: [35]
37.3 µM: [38]
31.3 µM: [5]
30.7 µM: [23]
30.4 µM: [36]
32.1 µM: [18]
31.6 µM: [17]
60.1 µM: [6]
65.4 µM: [37]
32.6 µM: [59]
30 µM: [51]
48.1 µM: [7]
> 100 µM: [12] | [13] | [31] | [41] | [50] | [58]
31.8 µM: [11]
32.4 µM: [45]
40.2 µM: [57]
38.4 µM: [30]
34.4 µM: [32]
31.7 µM: [34]
30.6 µM: [15]
70.8 µM: [8]
42.9 µM: [28] | [55]
38.1 µM: [25]
34.6 µM: [27]
34.7 µM: [16] | [21]
76.8 µM: [33]
36.9 µM: [14]
28.9 µM: [1]
31.9 µM: [3] | [4]
67.6 µM: [19]
72 µM: [42]
59 µM: [2]
54.9 µM: [39]
50.4 µM: [9]

CC(=O)[C@@]1(c2ccccc2)CC2(CCN(C)CC2)O[C@H]1C
> 100 µM: [1] | [57] | [2] | [3] | [4] | [5] | [7] | [8] | [9] | [11] | [12] | [14] | [15] | [17] | [18] | [19] | [20] | [21] | [22] | [23] | [25] | [26] | [27] | [28] | [29] | [30] | [31] | [32] | [33] | [34] | [35] | [36] | [37] | [39] | [40] | [41] | [42] | [43] | [45] | [46] | [47] | [48] | [49] | [50] | [51] | [52] | [53] | [54] | [55] | [56]
